In US12029739B2, “SHP2 inhibitor and use thereof” (KANAPH THERAPEUTICS INC., priority 2021, dated 2024):
Read-outs that look alike come from different tables or passages of the source.

Tests used:
[1] = molecular target: T1, SHP2 (full length) (Homo sapiens, UniProt Q06124); test: Phosphatase assay (PTPase assay) with DiFMUP substrate; type: biochemical; conditions: SHP2 activated with SHP2 activating peptide, DiFMUP 80 μM, 2 hours, fluorescence
T1 construct: SHP2 (full length, diluted to 100 pM final concentration in reaction buffer, BPS bioscience, US); purchased BPS bioscience, US
T1 sequence (Q06124 1-593): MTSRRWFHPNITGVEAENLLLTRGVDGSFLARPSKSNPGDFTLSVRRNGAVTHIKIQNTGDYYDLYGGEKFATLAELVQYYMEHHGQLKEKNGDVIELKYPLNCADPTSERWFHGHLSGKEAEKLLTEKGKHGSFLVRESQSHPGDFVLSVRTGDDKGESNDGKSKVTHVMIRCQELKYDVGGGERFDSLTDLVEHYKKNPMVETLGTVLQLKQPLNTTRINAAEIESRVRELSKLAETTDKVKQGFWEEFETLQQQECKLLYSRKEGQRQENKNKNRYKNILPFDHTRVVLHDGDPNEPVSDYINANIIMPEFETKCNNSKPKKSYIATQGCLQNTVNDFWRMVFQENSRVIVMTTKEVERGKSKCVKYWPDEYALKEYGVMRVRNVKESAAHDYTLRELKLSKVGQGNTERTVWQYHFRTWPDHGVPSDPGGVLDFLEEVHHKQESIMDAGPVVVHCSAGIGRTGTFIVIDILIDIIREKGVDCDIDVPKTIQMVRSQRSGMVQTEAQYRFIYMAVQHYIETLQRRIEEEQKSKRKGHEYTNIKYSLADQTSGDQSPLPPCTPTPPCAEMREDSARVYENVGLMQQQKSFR

[2] = tested on: phospho-ERK in MIA PaCa2 or H358 cells; test: Phospho-ERK assay (AlphaLisa); type: cell-based; conditions: 1.5 h
[3] = MIA PaCa2 or H358 cells, compound incubated 1.5 hours, read-out: IC50 (p-ERK)

Row | IC50 ([1]; read-out: IC50 (PTPase aS say)) [nM] | IC50 [2, 3] [nM] | SMILES | IC50 ([1]; IC50 (PTPase aS say, nM)) [nM] | IC50 ([2]; read-out: IC50 (p-ERK, nM)) [nM]
1 | < 3 | < 45 | C[C@@H]1OCC2(CCN(c3cnc(Sc4ccc5ncn(Cc6ccc7cc[nH]c7n6)c(=O)c5c4Cl)cn3)CC2)[C@@H]1N [Example 42, 3-((1H-pyrrolo[2,3-b]pyridin-6-yl)methyl)-6-((5-((3S,4S)-4-amino-3-methyl-2-oxa-8-azaspiro[4.5]decan-8-yl)pyrazin-2-yl)thio)-5-chloroquinazolin-4(3H)-one] | – | –
2 | < 3 | < 45 | C[C@@H]1OCC2(CCN(c3cnc(Sc4ccc5ncn(Cc6ccc(N)nc6)c(=O)c5c4Cl)cn3)CC2)[C@@H]1N [Example 48, 6-((5-((3S,4S)-4-amino-3-methyl-2-oxa-8-azaspiro[4.5]decan-8-yl)pyrazin-2-yl)thio)-3-((6-aminopyridin-3-yl)methyl)-5-chloroquinazolin-4(3H)-one] | – | –
3 | < 3 | > 1500 | COCCCn1cnc2ccc(Sc3cnc(N4CCC5(CC4)CO[C@@H](C)[C@H]5N)cn3)c(Cl)c2c1=O [Example 94, 6-((5-((3S,4S)-4-amino-3-methyl-2-oxa-8-azaspiro[4.5]decan-8-yl)pyrazin-2-yl)thio)-5-chloro-3-(3-methoxypropyl)quinazolin-4(3H)-one] | – | –
4 | < 3 | < 45 | C[C@@H]1OCC2(CCN(c3cnc(Sc4ccc5ncn(CCC(F)(F)F)c(=O)c5c4Cl)cn3)CC2)[C@@H]1N [Example 113] | – | –
5 | < 3 | < 45 | C[C@@H]1OCC2(CCN(c3cnc(Sc4ccc5ncn(Cc6ccccc6F)c(=O)c5c4Cl)cn3)CC2)[C@@H]1N [Example 43, 6-((5-((3S,4S)-4-amino-3-methyl-2-oxa-8-azaspiro[4.5]decan-8-yl)pyrazin-2-yl)thio)-5-chloro-3-(2-fluorobenzyl)quinazolin-4(3H)-one] | – | –
6 | < 3 | < 45 | C[C@@H]1OCC2(CCN(c3cnc(Sc4ccc5ncn(Cc6ccnc(C#N)c6)c(=O)c5c4Cl)cn3)CC2)[C@@H]1N [Example 71, 4-((6-((5-((3S,4S)-4-amino-3-methyl-2-oxa-8-azaspiro[4.5]decan-8-yl)pyrazin-2-yl)thio)-5-chloro-4-oxoquinazolin-3(4H)-yl)methyl)picolinonitrile] | – | –
7 | 3 to 100 | 45 to 1500 | C[C@@H]1OCC2(CCN(c3cnc(Sc4ccc5ncn(Cc6cccnc6N)c(=O)c5c4Cl)cn3)CC2)[C@@H]1N [Example 52, 6-((5-((3S,4S)-4-amino-3-methyl-2-oxa-8-azaspiro[4.5]decan-8-yl)pyrazin-2-yl)thio)-3-((2-aminopyridin-3-yl)methyl)-5-chloroquinazolin-4(3H)-one] | – | –
8 | < 3 | < 45 | C[C@@H]1OCC2(CCN(c3cnc(Sc4ccc5ncn(Cc6nc7ccccc7o6)c(=O)c5c4Cl)cn3)CC2)[C@@H]1N [Example 47, 6-((5-((3S,4S)-4-amino-3-methyl-2-oxa-8-azaspiro[4.5]decan-8-yl)pyrazin-2-yl)thio)-3-(benzooxazol-2-ylmethyl)-5-chloroquinazolin-4(3H)-one] | – | –
9 | < 3 | < 45 | C[C@@H]1OCC2(CCN(c3cnc(Sc4ccc5ncn(CC6(O)CCOCC6)c(=O)c5c4Cl)cn3)CC2)[C@@H]1N [Example 83, 6-((5-((3S,4S)-4-amino-3-methyl-2-oxa-8-azaspiro[4.5]decan-8-yl)pyrazin-2-yl)thio)-5-chloro-3-((4-hydroxytetrahydro-2H-pyran-4-yl)methyl)quinazolin-4(3H)-one] | – | –

Further lines, the molecule ahead of its results:

Row | SMILES | IC50 ([1]; read-out: IC50 (PTPase aS say)) [nM] | IC50 [2, 3] [nM] | IC50 ([1]; IC50 (PTPase aS say, nM)) [nM] | IC50 ([2]; read-out: IC50 (p-ERK, nM)) [nM]
10 | Cn1c(N2CCN(C[C@H](N)Cc3ccncc3)CC2)nc(N)c(Sc2cccc(Cl)c2Cl)c1=O [Example 186, (R)-6-amino-2-(4-(2-amino-3-(pyridin-4-yl)propyl)piperazin-1-yl)-5-((2,3-dichlorophenyl)thio)-3-methylpyrimidin-4(3H)-one] | > 100 | 45 to 1500 | – | –
11 | COC(C)Cn1cnc2ccc(Sc3cnc(N4CCC5(CC4)Cc4ncccc4[C@H]5N)cn3)c(Cl)c2c1=O (stereo partly drawn) [Example 142, 6-((5-((S)-5-amino-5,7-dihydrospiro[yclopenta[b]pyridine-6,4′-piperidin]-1′-yl)pyrazin-2-yl)thio)-5-chloro-3-(2-methoxypropyl)quinazolin-4(3H)-one] | < 3 | < 45 | – | –
12 | Cc1nc2ccc(Sc3cnc(N4CCC(C)(CN)CC4)cn3)c(Cl)c2c(=O)n1Cc1ccccc1 [Example 23, 6-((5-(4-(aminomethyl)-4-methylpiperidin-1-yl)pyrazin-2-yl)thio)-3-benzyl-5-chloro-2-methylquinazolin-4(3H)-one] | 3 to 100 | 45 to 1500 | – | –
13 | C[C@@H]1OCC2(CCN(c3cnc(Sc4ccc5ncn(C6CCCCC6)c(=O)c5c4Cl)cn3)CC2)[C@@H]1N [Example 91, 6-((5-((3S,4S)-4-amino-3-methyl-2-oxa-8-azaspiro[4.5]decan-8-yl)pyrazin-2-yl)thio)-5-chloro-3-cyclohexylquinazolin-4(3H)-one] | 3 to 100 | 45 to 1500 | – | –
14 | CC(C)(O)Cn1cnc2ccc(Sc3cnc(N4CCC5(CC4)Cc4scnc4[C@H]5N)cn3)c(Cl)c2c1=O [Example 160, 6-[5-[(4S)-4-amino[4,6-dihydrocyclopenta[d]thiazole-5,4′-piperidin]-1′-yl]pyrazin-2-yl]sulfanyl-5-chloro-3-(2-hydroxy-2-methyl-propyl)quinazolin-4-one] | < 3 | < 45 | – | –
15 | C[C@@H]1OCC2(CCN(c3cnc(Sc4ccc5ncn(Cc6cccc(S(=O)(=O)F)c6)c(=O)c5c4Cl)cn3)CC2)[C@@H]1N [Example 19, 3-((6-((5-((3S,4S)-4-amino-3-methyl-2-oxa-8-azospiro[4.5]decan-8-yl)pyrazin-2-yl)thio)-5-chloro-4-oxoquinazolin-3(4H)-yl)methyl)benzenesulfonyl fluoride] | – | – | < 3 | 45 to 1500
16 | CC1(CN)CCN(c2cnc(Sc3ccc4ncn(Cc5ccc(S(=O)(=O)F)cc5)c(=O)c4c3Cl)cn2)CC1 [Example 17, 4-((6-((5-(4-(aminomethyl)-4-methylpiperidin-1-yl)pyrazin-2-yl)thio)-5-chloro-4-oxoquinazolin-3(4H)-yl)methyl)benzenesulfonyl fluoride] | – | – | 3 to 100 | 45 to 1500
17 | CC(C)(O)Cn1cnc2ccc(Sc3cnc(N4CCC5(CC4)Cc4ncccc4[C@@H]5N)cn3)c(Cl)c2c1=O [Example 159, 6-[5-[(5R)-5-aminospiro[5,7-dihydrocyclopenta[b]pyridine-6,4′-piperidin]-1′-yl]pyrazin-2-yl]sulfanyl-5-chloro-3-(2-hydroxy-2-methylpropyl)quinazolin-4-one] | < 3 | < 45 | – | –
18 | COCCn1cnc2ccc(Sc3cnc(N4CCC5(CC4)Cc4nc(Cl)sc4[C@H]5N)cn3)c(Cl)c2c1=O [Example 161, 6-[5-[(6S)-6-amino-2-chloro-spiro[4,6-dihydrocyclopenta[d]thiazole-5,4′-piperidin]-1′-yl]pyrazin-2-yl]sulfanyl-5-chloro-3-(2-methoxyethyl)quinazolin-4-one] | < 3 | < 45 | – | –
19 | COCCn1cnc2ccc(Sc3cnc(N4CCC5(CC4)Cc4ncsc4[C@H]5N)cn3)c(Cl)c2c1=O [Example 144, 6-[5-[(6S)-6-aminospiro[4,6-dihydrocyclopenta[d]thiazole-5,4′-piperidin]-1′-yl]pyrazin-2-yl]sulfanyl-5-chloro-3-(2-methoxyethyl)quinazolin-4-one] | < 3 | < 45 | – | –
20 | CC1(N)CCN(c2cnc(Sc3ccc4nc[nH]c(=O)c4c3Cl)cn2)CC1 [Example 4, 6-((5-(4-amino-4-methylpiperidin-1-yl)pyrazin-2-yl)thio)-5-chloroquinazolin-4(3H)-one] | 3 to 100 | 45 to 1500 | – | –
21 | C[C@@H]1OCC2(CCN(c3cnc(Sc4ccc5ncn(CC(=O)N6CCCCC6)c(=O)c5c4Cl)cn3)CC2)[C@@H]1N [Example 95, 6-((5-((3S,4S)-4-amino-3-methyl-2-oxa-8-azaspiro[4.5]decan-8-yl)pyrazin-2-yl)thio)-5-chloro-3-(2-oxo-(2-piperidin-1-yl]ethyl)quinazolin-4(3H)-one] | < 3 | 45 to 1500 | – | –
22 | N[C@@H]1c2cccnc2CC12CCN(c1cnc(Sc3ccc4ncn(CC5CCOC5)c(=O)c4c3Cl)cn1)CC2 (stereo partly drawn) [Example 107, 6-((5-((S)-5-amino-5,7-dihydrospiro[yclopenta[b]pyridine-6,4′-piperidin]-1′-yl)pyrazin-2-yl]thio)-5-chloro-3-((tetrahydrofuran-3-yl)methyl)quinazolin-4(3H)-one] | < 3 | < 45 | – | –
23 | Cn1c(N2CCOC(CN)C2)nc(N)c(Sc2cccc(Cl)c2Cl)c1=O (stereo not drawn) [Example 198, 6-amino-2-(2-(aminomethyl)morpholino)-5-((2,3-dichlorophenyl)thio)-3-methylpyrimidin-4(3H)-one] | > 100 | > 1500 | – | –
24 | COCCOc1nc2ccc(Sc3cnc(N4CCC5(CC4)CO[C@@H](C)[C@H]5N)cn3)c(Cl)c2[nH]1 [Example 127] | < 3 | < 45 | – | –
